For series [1], the system named is healthy adults. Description: Phase 1 first-in-human study: safety and tolerability (adverse events), SAD and MAD cohorts. The note with it: in vivo. An excerpt: Study Overview and Ethics. The study used a randomized, placebo-controlled, single-ascending dose (SAD) and multiple-ascending dose (MAD) design (FIG. 2). […] Dose escalation was to be stopped when this range was achieved, or when a non-tolerated dose was identified, if earlier.
Participants and Treatments. To be eligible for this study, participants were to be healthy adults aged 18 to 55 years, with body mass index of 18.0 to 32.0 kg/m^2, normal electrocardiogram (ECG) and clinical laboratory values, or only minor abnormalities that were deemed not clinically significant. Participants also had to have normal cardiac structure and function, with LVEF≥60% for the first 4 SAD cohorts, ≥65% for subsequent SAD cohorts, all MAD cohorts, and the food-effect cohort, and >55% for the CYP2D6-PM cohort. […]
Safety and tolerability. Safety was assessed by the incidence of adverse events (AEs) and by incidence of reduced LVEF. […]
For safety monitoring, participants in all cohorts had periodic echocardiograms, which were assessed by a cardiologist. […] In addition, participants in all cohorts were monitored with continuous 12-lead ECG recording using Holter monitors. […] In the SAD, MAD, and CYP2D6-PM cohorts, cardiodynamic ECGs (triplicate 10-second, 12-lead ECG recordings) were obtained prior to the corresponding PK blood and ECG intervals quantitated by qualified readers.

The subject of series [2] is healthy adults. Briefly: Phase 1 pharmacodynamics by echocardiography (LVEF), SAD and MAD cohorts. Type of series: in vivo, human. Here is the method:
Echocardiography. For PD assessments of LVEF, echocardiograms for the SAD and MAD cohorts were interpreted by the echocardiography core laboratory and used for all data analysis and dose level review decisions while immediate local interpretation of the echocardiograms was performed for safety monitoring. […] Echocardiograms on day 3 (48 h after dosing) were obtained only if the 24 h LVEF had not returned to near or above baseline, as determined by the investigator. In the MAD cohorts, echocardiograms were obtained on day −1, pre-dose on day 1, and at 1.5 h post dose on days 2, 4, and 9, and at 1.5, 24, and 72 h post dose on day 14 (for the 5-mg and 10-mg cohorts) or on day 17 (for the 7.5-mg cohort). Echocardiograms were obtained 3 days after the last dose (on day 17 or 20) only if the participant's prior LVEF was not near or above baseline, as determined by the investigator.
All participants who received ≥1 dose of study drug and had ≥1 pre-dose and ≥1 post-dose echocardiographic measurement were included in the PD analysis set. […] Descriptive statistics of the echocardiographic parameters were generated using SAS® Version 9.3 or higher.
Dose-response analysis was performed using analysis of covariance (ANCOVA) to identify the least-squares mean difference (aficamten minus placebo). To analyze the impact of drug dose on echocardiographic parameters in the SAD and MAD cohorts, an inferential analysis was conducted on the PD analysis set using linear mixed models for repeated-measures analysis of covariance (ANCOVA). The ANCOVA used baseline value as a covariate, included treatment, time-point, and time-point-by-treatment interaction as fixed effects, and change from baseline as the dependent variable. The unstructured variance-covariance structure was used, and the model accounted for the time-point repeated measures. The ANCOVA analysis was conducted separately for each study part and for each PD parameter. The least-squares means, the difference in least squares means (active minus placebo), and the associated 2-sided 95% CIs were presented for each comparison.
Analyses of concentration ‘bin’ and exposure-response were also performed using ANCOVA. SAS® PROC MIXED was used for all comparative analyses. […] A concentration bin ANCOVA was conducted using linear mixed models for repeated-measures analyses with concentration bin group as a fixed effect, baseline PD parameters as a covariate, change from baseline as the dependent variable, and a random intercept to adjust for the repeated measures. The unstructured variance-covariance structure was used. […] The ANCOVA compared the change in PD parameters between each bin versus the pooled placebo group. The least-squares means, the difference in least squares means (bin group minus placebo), and the associated 2-sided 95% CIs were presented for each comparison. The ANCOVA analysis was conducted separately for each study part. For all time-points at which both PK data and PD measures were available, the time-points were pooled for the analysis. […] From least to greatest, the data were then divided into 5 groups of observations (‘bins’), each consisting of 20% of the data points. Each bin was treated as a separate group.
The above analysis was then repeated using concentration as a continuous variable to estimate the exposure-response trend. Both a random intercept effect and a random concentration effect were added to the ANCOVA. The estimate of the concentration slope, with corresponding 2-sided 95% CIs, and the ANCOVA analyses were presented for each study part.
For all time-points at which both PK data and PD measures were available, the time points were pooled for the analysis. A nominal significance level of 5% was used for statistical comparisons, without adjustment for multiplicity.

Setting [3] is: SAD 50 mg (n = 11), […] post dose.

“And” between values parts separate entries of the source, which are not always exact repeats. Equal entries are not always repeated.

From US20250177357A1, “METHODS FOR TREATING HYPERTROPHIC CARDIOMYOPATHY” (priority 2021, published 2025) come the findings set out here.

Take `CCc1nc(-c2ccc3c(c2)CC[C@H]3NC(=O)c2cnn(C)c2)no1` [aficamten, (R)—N-(5-(5-ethyl-1,2,4-oxadiazol-3-yl)-2,3-dihydro-1H-inden-1-yl)-1-methyl-1H-pyrazole-4-carboxamide]: the “Time to resolution of AEs of decreased ejection fraction <45%” value in the series on healthy adults [1] (human) was in the range of 2.5 to 4.6 h. Also, the “Post-dose LVEF of 1 participant with LVEF <50%” value with healthy adults [1] worked out at 46.2%. In the series with healthy adults [2] (10-mg MAD cohort), the “Participants with absolute reductions in LVEF of ≥10% from baseline” value was 33%. For the same compound, the “Participants with absolute reduction in LVEF ≥5% from baseline” value is 17% with healthy adults [2] (MAD 7.5 mg once daily, 1 of 6); 33% with healthy adults [2] (MAD 10 mg once daily, 2 of 6); “no participants” with healthy adults [2] (SAD 1-, 10-, or 25-mg cohorts); 17% with healthy adults [2] (SAD 3-mg cohort, 1 of 6); 33% with healthy adults [2] (SAD 40-mg cohort, 2 of 6); 64% in the series with healthy adults [2] (SAD 50-mg cohort, 7 of 11). For the same compound, the “Participants with absolute reduction in LVEF ≥5% from baseline” value in the series on healthy adults [2] (SAD 75-mg cohort, 1 of 1) is recorded as 100%. For the same compound, the “Number of participants with reduction in LVEF ≥10%” value in the series with healthy adults [2] (MAD 10-mg cohort) turned out to be 2. Moreover, in the series with healthy adults [2] (MAD cohorts), the “Plasma aficamten concentrations with minimal suppression of LVEF in most participants” value is at most 180 ng/mL. In the series with healthy adults [2] (setting [3]), the “A, mean change from baseline” value is 2.5 cm/s. In the series on healthy adults [2] (setting [3]), the “E, mean change from baseline” value is -2.7 cm/s. Further, the “LV ET, mean change from baseline” value with healthy adults [2] (setting [3]) turned out to be 1.9 ms. The “Participants with absolute reduction in LVEF ≥10%” value in the series on healthy adults [2] (SAD 40-mg cohort, 1 of 6) worked out at 17%; with healthy adults [2] (SAD 75-mg cohort, 1 participant), 100%. Further, the “Participants with reduction in LVEF to <50%” value came to 18% with healthy adults [2] (SAD 50-mg cohort, 2 of 11) and 100% in the series with healthy adults [2] (SAD 75-mg cohort, 1 of 1). The “LVEF of the individual participants with LVEF <50%” value with healthy adults [2] (SAD 50-mg cohort, core laboratory assessment) is 48.2% and 45.5%. The “Reduction in LVEF to <50%” value in the series on healthy adults [2] (any MAD cohort, core laboratory assessment) was “not observed”. For the same compound, in the series on healthy adults [2] (following single doses), the “Time within which decreases in LVEF to <50% were reversible” value is reported as at most 6 h. Moreover, the “Decrease in mean LVEF from baseline, least-squares mean difference vs placebo” value in the series on healthy adults [2] (single 50-mg dose, […] post dose, p=0.0001) is recorded as 5.5%. In the series on healthy adults [2] (single dose of 75 mg, approximately […] after dosing), the “LVEF reached by 1 participant” value was 34.1%.
